According to publication PMC9697187 (Viruses, 2022):
Where two headings read alike, the source gives them in different places.

Tests used:
[1] = test system: FIPV serotype I (Black I); assay: Colorimetric CPE bioassay; format: cell-based, feline infectious peritonitis virus (FIPV); conditions: for EC50: read-out: EC50 against Black I (serotype I FIPV)
FIPV II = conditions: cited from earlier work
[2] = test system: FIPV serotype II (WSU-79-1146); assay: Combined anticoronaviral therapy; format: cell-based, feline infectious peritonitis virus (FIPV); conditions: WSU-79-1146, CRFK cells, alone and combined determined concurrently
CRFK cells = conditions: cited from earlier work
[3] = Single dose pharmacokinetics of orally administered MPV in SPF cats; format: in vivo, cat
CEM/C1 human cell line = conditions: cited from earlier work
[4] = test system: FIPV serotype II (WSU-79-1146); assay: Colorimetric CPE bioassay; format: cell-based, feline infectious peritonitis virus (FIPV); conditions: for EC50: read-out: EC50 against WSU-79-1146 (serotype II FIPV)
[5] = test system: feline infectious peritonitis (FIP); conditions: cited from earlier work; for Cats clinically cured of FIP: retrospective study, treated with either GC376 or GS-441524
[6] = parameters: method as in not printed at the place; conditions: read-out: Cmax of GS-441524; subcutaneously administered at 5 mg/kg, cats; ref not given; cited from earlier work
in vivo = assay: in vivo; parameters: species or system cat; conditions: male; for Cmax: Cmax of GS-441524
[7] = FCWF-4 CU cells, MOI 0.1, 72 h, monotherapy
[8] = Alphacoronavirus 1, FCWF-4 CU cells, MOI 0.1, 72 h, monotherapy
[9] = male, serum, po, 10 mg/kg, 10 mg/kg oral molnupiravir, mean of 3 cats
[10] = serum MPV, 10 mg/kg oral molnupiravir, mean of 3 cats, 10 mg/kg
[11] = Alphacoronavirus 1, read-out: EC50, combination experiment (A) nirmatrelvir and MPV
[12] = clinical trial, naturally occurring FIP
[13] = owner survey, unlicensed GS-441524
[14] = Alphacoronavirus 1, CRFK cells, MOI 0.1, 72 h, monotherapy
[15] = Alphacoronavirus 1, read-out: EC50, combination experiment (C) remdesivir and nirmatrelvir

In the case of CC(C)C[C@H](NC(=O)OCc1ccccc1)C(=O)N[C@@H](CC1CCNC1=O)C(O)S(=O)(=O)O (stereo partly shown) [GC376], the EC50 [1, 7] is listed as 10 nM, the EC50 (FIPV II; prior study, read-out: EC50 against FIPV II) is listed as 900 nM and the EC50 ([2]; read-out: EC50, combination experiment (B) GC376 and remdesivir) is listed as 406 nM.
In the case of O=c1nc(NO)ccn1[C@@H]1O[C@H](CO)[C@@H](O)[C@H]1O [NHC, β-D-N^4-hydroxycytidine], the EC50 [1, 7] is given as 50 nM, the “EC50 against Black I expressed as” value ([1]; equivalent of 0.05 μM) is given as 0.0129 µg/mL and the “Cytotoxicity in CRFK cells” value (CRFK cells) is given as “cytotoxicity has also been documented”. For the same compound, the “Serum exposure relative to the NHC EC50” value ([3]; in vivo) was “greater than the NHC EC50”, the “Kel of NHC” value ([3]; in vivo, po, 10 mg/kg) was 0.2 h⁻¹ and the CC50 (CEM/C1 human cell line) was 7500 nM. It also gave an EC50 ([4]; CRFK cells, MOI 0.1, 72 h, monotherapy) of 110 nM.
In the case of CC(C)C(=O)OC[C@H]1O[C@@H](n2ccc(NO)nc2=O)[C@H](O)[C@@H]1O [MPV, molnupiravir], the EC50 [1, 8] is reported as 16 nM, the “Detection of MPV in serum over 24 h” value ([3]; 10 mg/kg oral MPV) is reported as “not detected after the 12-h time point” and the “Peak detection time point in serum, aggregate of three cats” value ([3]; 10 mg/kg oral MPV, Figure 3B) is reported as “approximately 1.5 h”. For the same compound, the CL/F [3, 9] was 347 L/h/kg, the MRT [3, 9] was 4.6 h and the AUC(0-t) ([3]; male, serum, po, 10 mg/kg, 10 mg/kg oral molnupiravir, mean of 3 cats, read-out: AUC0-t of MPV) was 0.085 µM·h. It also gave a Vd/F ([3]; male, serum, po, 10 mg/kg, 10 mg/kg oral molnupiravir, mean of 3 cats, read-out: Vz/F of MPV) of 881 L/kg, an AUC ([3]; male, serum, po, 10 mg/kg, serum MPV, 10 mg/kg oral molnupiravir, individual cat) of 39.6 ng·h/mL and an AUC(0-t) ([3]; male, serum, po, 10 mg/kg, serum MPV, 10 mg/kg oral molnupiravir, mean of 3 cats, read-out: AUC (AUC0-t) of MPV) of 27.5 ng·h/mL. For the same compound, the “AUC (AUC0-t) of MPV” value [3, 10] was 27.5 ng·h/mL, the Cmax [3, 10] was 0.04 µM and the “Cmax of MPV” value [3, 10] was 14.2 ng/mL. The EC50 ([4]; Alphacoronavirus 1, CRFK, 72 h) was 700 nM and the EC50 [2, 11] was 693 nM.
In the case of CC(C)C[C@H](NC(=O)OCc1ccccc1)C(=O)N[C@@H](C[C@@H]1CCNC1=O)C(O)S(=O)(=O)[O-].[Na+] (stereo partly shown) [GC376], the Cats in remission [5, 12] is given as “seven of the 20” and the “Cats clinically cured of FIP” value [5] is given as 29 of 30.
In the case of N#C[C@@]1(c2ccc3c(N)ncnn23)O[C@H](CO)[C@@H](O)[C@H]1O [GS-441524], the EC50 [1, 8] is given as 20 nM, the Cmax [6] is given as roughly 10 µM and the “Cats healthy and disease free at the time of publication” value [5, 12] is given as 25 of 31. For the same compound, the “Cats with successful resolution of disease” value ([5]; neurological FIP, escalating dose) was 3 of 4, the “Cats with neurological or ocular signs successfully treated” value ([5]; owner survey responses) was 161 of 169 and the “Cats alive at the time of publication” value ([5]; owner survey, unlicensed GS-441524, n = 380) was 96.7%. For the same compound, the Cats considered cured [5, 13] was 54.0%, the “Cats still being monitored in the 12-week observation period” value [5, 13] was 43.3% and the “Cats clinically cured of FIP” value [5] was 29 of 30. For the same compound, the EC50 (FIPV II; previously reported, read-out: EC50 against serotype II FIPV) was 780 nM, the concentration at 24 h (in vivo; cat, GS-441524 remaining in plasma 24 h post-treatment) was 0.22 to 2 µM and the AUC(0-t) (in vivo; iv, 7 mg/kg, AUC0-24 of GS-441524) was 45 µM·h. For the same compound, the Cmax (in vivo; iv, 7 mg/kg) was 6.9 µM, the AUC(0-t) (in vivo; po, 25 mg/kg, AUC (AUC0-24) of GS-441524) was 89700 ng·h/mL and the Cmax (in vivo; po, 25 mg/kg) was 13300 ng/mL. For the same compound, the half-life (in vivo; po, 25 mg/kg, T1/2 of GS-441524) was 4.5 h and the EC50 ([4]; Alphacoronavirus 1, CRFK, 72 h) was 610 nM.
In the case of CC(C)(C)[C@H](NC(=O)C(F)(F)F)C(=O)N1C[C@H]2[C@@H]([C@H]1C(=O)N[C@H](C#N)C[C@@H]1CCNC1=O)C2(C)C [nirmatrelvir], the EC50 ([1]; Alphacoronavirus 1, 72 h) is reported as 16 nM, the EC50 [4, 14] is reported as 1310 nM and the “Differential efficacy, EC50 for FIPV I relative to FIPV II” value ([4]; Black I vs WSU-79-1146) is reported as roughly 100 fold. The EC50 [2, 11] was 1310 nM and the EC50 [2, 15] was 2940 nM.
CCC(CC)COC(=O)[C@H](C)N[P@](=O)(OC[C@H]1O[C@@](C#N)(c2ccc3c(N)ncnn23)[C@H](O)[C@@H]1O)Oc1ccccc1 [RDV, remdesivir] gave an EC50 [1, 8] of 30 nM, an EC50 [4, 14] of 180 nM and an EC50 ([2]; Alphacoronavirus 1, read-out: EC50, combination experiment (B) GC376 and remdesivir) of 181 nM. The EC50 [2, 15] was 6420 nM.
